Test results reported in PubChem BioAssay AID850 (SRMLSC, 2007).
The source made the active and inactive calls. How the calls were made is not given here.

Legend:
[1] = concentration-response yeast growth inhibition under permissive conditions, counter-assay for yeast lifespan-shortening chemical project (AID 850); conditions: Saccharomyces cerevisiae growth inhibition, permissive control, measured here: maximum growth inhibition, stronger effect = higher value;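 further: growth read as optical density after one day of incubation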
[2] = system: Saccharomyces cerevisiae growth inhibition, permissive control; test: as above

| SMILES | inhibition ([1]; at 50 µM) | other results |
| --- | --- | --- |
| CCCc1cc(C(=O)NC2CCCCC2)no1 | – | inhibition ([1]; at 0.391 µM): 10.3%; IC50 [2]: > 100 µM (inactive) |
| Cc1ccc(C(NC(=O)C(C)C)c2cc([N+](=O)[O-])c3cccnc3c2O)cc1 (centres undefined) | 90.4% | IC50 [2]: 28.8 µM |
| O=C(CC(=O)c1ccccc1O)c1ccc(F)cc1 | – | inhibition ([1]; at 25 µM): 37%; IC50 [2]: 30.1 µM |
| O=C(CCSc1nnc(-c2ccncc2)o1)Nc1ccc(Cl)cc1 | – | inhibition ([1]; at 12.5 µM): 86.9%; IC50 [2]: 8.46 µM |
| CC(N=Cc1cccc(O)c1O)c1ccccc1 (centres undefined) | 98% | IC50 [2]: 9.56 µM |
| CCOC(=O)C(=NC(C)CC)NNc1ccc(Br)cc1 (centres undefined) | 97.4% | IC50 [2]: 4.03 µM |
| O=c1c2ccccc2nc2sc3ccccc3n12 | 38.4% | – |
| N#CCSc1nc2ccccc2c2nc3ccccc3n12 | – | inhibition ([1]; at 25 µM): 39.2% |
| COc1ccc2c(c1)c1nnc(SC)nc1n2C | 63.9% | IC50 [2]: 48.3 µM |
| O=C(/C=C/N1CCOCC1)c1ccc(-c2ccccc2)cc1 | – | inhibition ([1]; at 25 µM): 99.6%; IC50 [2]: 7.19 µM |
| Cn1cccc1C(=O)Nc1nc(-c2ccccn2)cs1 | 97.9% | IC50 [2]: 22.5 µM |
| Oc1c(I)cc(Cl)c2cccnc12 | 98% | IC50 [2]: 16.7 µM |
| O=C1OCC(CO)(CO)N=C1NNc1ccc(Cl)c(Cl)c1 | 98.6% | IC50 [2]: 1.6 µM |
| CN(C)c1ccc(/C=C/c2ccc3ccccc3[n+]2C)cc1 | 85.8% | IC50 [2]: 22.3 µM |
| CCCCCC1CCC(C(=O)O)CC1 (centres undefined) | 51.8% | – |
| COc1ccc(N/N=C(\C#N)C(N)=O)cc1 | – | inhibition ([1]; at 25 µM): 36.4% |
| CC(Oc1ccc2ccccc2c1)C(=O)NNC(=S)NC(=O)c1ccco1 (centres undefined) | 98.6% | IC50 [2]: 11.3 µM |
| O=[N+]([O-])c1ccc(O)c2ncccc12 | – | inhibition ([1]; at 12.5 µM): 99.4%; IC50 [2]: 0.483 µM |
| CC(Sc1cccc[n+]1[O-])C(=O)Nc1cccc(S(=O)(=O)N2CCOCC2)c1 (centres undefined) | 99.8% | IC50 [2]: 8.22 µM |
| CCCCCCCCCCCCCCCC[n+]1cccc2ccccc21 | 100% | IC50 [2]: 0.701 µM |
| CCCOC(=O)c1ccc(Oc2cn[nH]c2-c2ccc(OC)cc2O)cc1 | 32.4% | – |
| Cc1ccnn2cc3c(=O)n(C)c(=O)n(C)c3c12 | 64.1% | IC50 [2]: 37.6 µM |

| SMILES | inhibition ([1]; at 50 µM) | other results |
| --- | --- | --- |
| CCN1CCN(C(=O)C(NS(=O)(=O)c2ccc3nc(C)sc3c2)C(C)C)CC1 (centres undefined) | – | inhibition ([1]; at 0.098 µM): 16.9%; IC50 [2]: > 100 µM (inactive) |
| CCOc1cc(C2CC(=O)N3CN(C4CCCCC4)CSC3=C2C#N)ccc1O (centres undefined) | – | inhibition ([1]; at 0.781 µM): 8.66%; IC50 [2]: > 100 µM (inactive) |
| CC(=O)NC1C(=O)N=C(SCC(=O)NC2CCCCC2)NC1=O (centres undefined) | 20.3% | IC50 [2]: > 100 µM (inactive) |
| CCOC(=O)C1C(C)N=C2SCC(=O)N2C1c1cccc(Br)c1 (centres undefined) | – | inhibition ([1]; at 12.5 µM): 12.2%; IC50 [2]: > 100 µM (inactive) |
| CCc1cccc2c(C(=O)COC(=O)c3ccc([N+](=O)[O-])s3)c[nH]c12 | 99.4% | IC50 [2]: 28 µM |
| Oc1c(CN2CCc3ccccc3C2)cc(Cl)c2cccnc12 | 101% | IC50 [2]: 11.5 µM |
| CCC(C)/C(C)=N/NC(=O)c1ccc(COc2ccc(Cl)c(C)c2)cc1 (centres undefined) | 83.8% | IC50 [2]: 27 µM |
| O=C(OCn1ncc(Cl)c(Cl)c1=O)c1ccccc1Cl | 54.5% | – |
| Nc1nsc2ccccc12 | 63.5% | IC50 [2]: 35.8 µM |
| Cc1cc(N/N=C/c2ccc(Cl)cc2Cl)nc(NCc2ccccc2)n1 | 99.2% | IC50 [2]: 31.7 µM |
| Cc1cccc(/C(N)=N/OC(=O)c2ccc(F)cc2)c1 | 23.4% | IC50 [2]: > 100 µM (inactive) |
| CC(C)(C)N/N=C/c1cc(Cl)cc([N+](=O)[O-])c1O | 95.7% | IC50 [2]: 16.8 µM |
| N/C(Cc1ccc(Cl)cc1)=N\OC(=O)c1ccccc1 | 98% | IC50 [2]: 29.8 µM |
| O=C(CN1CCN(c2ncc(C(F)(F)F)cc2Cl)CC1)NCCNc1ncc(C(F)(F)F)cc1Cl | 38.3% | – |
| Cc1cccc(OCCN2CSC(=S)N(C)C2)c1 | 87.3% | IC50 [2]: 10.6 µM |
| Cc1ccc(C(=O)OCn2ncc(Cl)c(Cl)c2=O)cc1 | 85.2% | IC50 [2]: 36.4 µM |
| COc1ccc2nc(NC(=S)N(C)C)sc2c1 | – | inhibition ([1]; at 12.5 µM): 35% |
| Cc1ccc(C(=O)/C=C/c2cn(CN3CCN(C)CC3)c3ccccc23)cc1 | 34.5% | – |
| Nc1cccc2nc3ccccc3cc12 | – | inhibition ([1]; at 25 µM): 38.6% |
| COc1cc(/C=C2/C(=O)ON=C2c2ccccc2)ccc1O | 45.6% | – |
| Clc1ccc2nnnc(-c3ccccc3)c2c1 | 37.5% | – |
| CC1CCc2c(sc3nc(CN4CCOCC4)nc(Sc4ccccc4)c23)C1 (centres undefined) | 33.9% | – |

| SMILES | inhibition ([1]; at 50 µM) | other results |
| --- | --- | --- |
| CC(C)N=c1scc(-c2ccco2)n1/N=C/c1ccc(O)c(O)c1 | 36.7% | – |
| COc1ccc2[nH]c3c(Cl)ncnc3c2c1 | 35.5% | – |
| Cc1cc2c(cc(C(=O)O)n2C)s1 | 34.3% | – |
| Cc1onc(-c2ccccc2)c1C(=O)NC(=S)NNC(=O)c1ccc(O)cc1O | – | inhibition ([1]; at 12.5 µM): 44.7% |
| Cc1cc(N2CCN(C(=O)c3ccco3)CC2)n2ncc(-c3ccccc3)c2n1 | 51.7% | – |
| O=C(CCCSc1ccccc1)Nc1nc(-c2ccccn2)cs1 | 39% | – |
| O=[N+]([O-])c1ccc(N=Nc2ccc(O)cc2O)cc1 | 36.3% | – |
| Cc1cc(OCc2ccc(C(=O)NN=C3CCCC3)cc2)ccc1Cl | 54.2% | – |
| c1cc2c(cc1C1CCCCC1)c1c3n2CCCNC3CCC1 (centres undefined) | 38.7% | – |
| Cc1ccc2nc(-c3ccc(NS(=O)(=O)c4ccc(F)c(F)c4)cc3)sc2c1 | – | inhibition ([1]; at 12.5 µM): 39.1% |
| CCOC(=O)c1cnc(-n2nc(C)cc2C)nc1NNc1cc(C)nc(-c2ccccc2)n1 | 48.1% | – |
| CCOc1ccc(NCc2nc3ccccc3n2CCOc2ccccc2)cc1 | 30.3% | – |
| Cn1c(=O)c2nc(-c3ccccc3)oc2c2ccccc21 | 38.2% | – |
| O=c1c2cccc3c2c(nn1CN1CCOCC1)-c1ccccc1-3 | 47.5% | – |
| CS(=O)(=O)N1CCN(C(=O)c2ccccc2F)CC1 | – | inhibition ([1]; at 3.125 µM): 34.8% |
| COc1cccc(/C=N/N2C(=O)CSC2=S)c1O | 34.1% | – |
| O=c1cccc2n1Cc1cc3ccccc3nc1-2 | 32.4% | – |
| Cc1ccc(O)c(C(=O)CC(=O)c2cccc(F)c2)c1 | 44.8% | – |
| OCc1ccc(O)c2ncccc12 | 33.1% | – |
| COc1ccc(NCc2ccc([N+](=O)[O-])s2)c(OC)c1 | 43.9% | – |
| CCCCc1ccc(NS(=O)(=O)c2cccs2)cc1 | 34.1% | – |
| Cc1cc(C)c2c(N=NN(C)C)[nH]nc2n1 | – | inhibition ([1]; at 25 µM): 35.6% |

| SMILES | inhibition ([1]; at 50 µM) | other results |
| --- | --- | --- |
| O=S(=O)(Nc1ccc(-c2csc(-c3ccccc3)n2)cc1)c1ccc(F)cc1 | – | inhibition ([1]; at 3.125 µM): 34.3% |
| CCOc1ccc(/C=C/[N+](=O)[O-])c2ccccc12 | 33.5% | – |
| Cc1cc2sc(C(=O)O)c(C)c2s1 | 57.7% | – |
| Cc1ccc(N=Nc2ccc(O)c3ncccc23)cc1 | 30.3% | – |
| Cc1c2cc(O)c(=O)cc-2oc2cc(O)c(O)cc12 | – | inhibition ([1]; at 25 µM): 39.9% |
| Cc1cccc(Cn2ncc(Cl)c(Cl)c2=O)c1 | 31.1% | – |
| O=c1c2c([N+](=O)[O-])cc([N+](=O)[O-])cc2sn1-c1ccc(Br)cc1 | – | inhibition ([1]; at 25 µM): 36.1% |
| O=C(c1c[nH]c(C(=O)C(Cl)(Cl)Cl)c1)c1ccccc1Cl | – | inhibition ([1]; at 25 µM): 46.3% |
| OCCN(CCO)CC(O)COc1ccc(C23CC4CC(CC(C4)C2)C3)cc1 (centres undefined) | – | inhibition ([1]; at 25 µM): 35.6% |
| Oc1c(Cl)cc(Cl)cc1Sc1cc(Cl)cc(Cl)c1O | – | inhibition ([1]; at 25 µM): 40.3% |
| O=C1c2ccccc2C(=O)C1c1ccc2ccccc2n1 | – | inhibition ([1]; at 25 µM): 30.6% |
| O=S(=O)(Nc1ccc(-c2nc3ccccc3o2)cc1)c1ccccc1 | 30.1% | – |
| CC(=O)N1N=C(c2ccc(Cl)cc2)OC1(C)C | – | inhibition ([1]; at 3.125 µM): 41% |
| O=C1CN(CC(=O)N2CCCCC2)c2ccccc2O1 | 37.7% | – |
| O=C(O)Cc1cc(I)c(Oc2ccc(O)c(I)c2)c(I)c1 | 38.6% | – |
| Cc1ccc2nc(-c3ccc(NS(=O)(=O)c4ccc(F)cc4)cc3)sc2c1 | 42.9% | – |
| Cc1nn(-c2ccccc2)c2sc(C(=O)O)cc12 | 41.3% | – |
| Cc1ccc(N2CCOCC2)c2c1C(=O)c1ccccc1C2=O | 32.3% | – |
| O=[N+]([O-])c1ccc(C2Oc3ccccc3C3CC(c4ccccc4)=NN32)s1 (centres undefined) | 45% | – |
| Cc1cccc(OCCCOc2cccc3cccnc23)c1C | 33.1% | – |
| COc1ccc(-n2c(Cc3cccn3C)nnc2SCC(=O)N2CCCC2)cc1 | – | inhibition ([1]; at 12.5 µM): 37.7% |
| O=C(NC(Nc1nc2ccc([N+](=O)[O-])cc2s1)(C(F)(F)F)C(F)(F)F)c1ccccc1 | 34.1% | – |

| SMILES | inhibition ([1]; at 50 µM) | other results |
| --- | --- | --- |
| CCc1ccc2c(c1)C1(NN=C(c3cccc4ccccc34)S1)C(=O)N2 (centres undefined) | 32.3% | – |
| O=C(Cc1cccs1)NNC(=S)NC(=O)c1ccccc1 | – | inhibition ([1]; at 25 µM): 41% |
| Oc1ccccc1NCC(O)Cn1ccc2ccccc21 (centres undefined) | 30.2% | – |
| NNC(=O)c1cccc(COc2ccc(Br)cc2)c1 | 54.5% | – |
| CCCCn1c(=O)c(C(=O)NCc2ccncc2)c(O)c2ccccc21 | 41.3% | – |
| O=C(N/N=C1\CC2CC=CC12)c1ccc(COc2ccccc2)cc1 (centres undefined) | 35.1% | – |
| O=Nc1c2nc3ccccc3n(O)c-2c2ccccc12 | 37.8% | – |
| Cn1c2ccccc2c(=O)n2c(=O)c3ccccc3cc12 | – | inhibition ([1]; at 12.5 µM): 30.2% |
| Cc1cc(C)c2c(N=NN3CCCCC3)[nH]nc2n1 | – | inhibition ([1]; at 25 µM): 39.3% |
| Cc1nn(-c2ccccc2)c2sc(-c3n[nH]c(=S)o3)cc12 | 36.1% | – |
| CCCOC(=O)c1ccc(Oc2cn[nH]c2-c2ccc(OCC)cc2O)cc1 | – | inhibition ([1]; at 3.125 µM): 34.6% |
| C=CCSC(=C(C#N)C#N)c1cc2c([nH]1)CCCC2 | 32.9% | – |
| CCc1cc2c(cc(C(=O)O)n2C)s1 | – | inhibition ([1]; at 25 µM): 48.3% |
| N/C(=N\OC(=O)c1ccc(Cl)cc1Cl)c1ccccc1 | – | inhibition ([1]; at 12.5 µM): 32.3% |
| CC(=O)c1c(C)oc2c1C(=O)c1ccccc1C2=O | 39.7% | – |
| CN1CCN(Cc2cc(COCc3ccccc3)c3cccnc3c2O)CC1 | 51.7% | – |
| COC(=O)c1ccc2c(c1O)C(=O)c1ccccc1C2=O | 57.6% | – |
| c1ccc(-c2ccc(-c3ccccn3)nn2)nc1 | 36.1% | – |
| CCOc1cc(CNCCO)cc(Br)c1OCc1ccc(Cl)cc1Cl | 46.1% | – |
| O=C(O)c1cc2c(ccc3ccccc32)oc1=O | 38.3% | – |
